In US10030016B2 (Sunesis Pharmaceuticals, Inc., priority 2009, dated 2018):
Counter-ions that a name gives are not always drawn. Like-named read-outs stand apart in the source and are kept apart here.

Assays:
[1] = system: phospho-akt (Thr308) in PC-3 cells; experiment: Inhibition of phospho-akt (Thr308) in PC-3 cells, MSD phospho-akt 308 ELISA kit; assay type: cell-based; conditions: Homo sapiens, 2 hours, no serum, read-out: EC50
In short: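 Phospho-Akt (Thr308) levels were measured by MSD ELISA after PC-3 cells received compound for 2 hours in serum-free medium. Controls: DMSO (high), 5 μM wortmannin (low).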

PDK1 = PDK1 (Homo sapiens (Human), UniProt O15530); experiment: PDK1 kinase assay (coupled PDK1/AKT/FAM-crosstide assay, IMAP fluorescence polarization); assay type: biochemical
Sequence of PDK1 (O15530 51-359): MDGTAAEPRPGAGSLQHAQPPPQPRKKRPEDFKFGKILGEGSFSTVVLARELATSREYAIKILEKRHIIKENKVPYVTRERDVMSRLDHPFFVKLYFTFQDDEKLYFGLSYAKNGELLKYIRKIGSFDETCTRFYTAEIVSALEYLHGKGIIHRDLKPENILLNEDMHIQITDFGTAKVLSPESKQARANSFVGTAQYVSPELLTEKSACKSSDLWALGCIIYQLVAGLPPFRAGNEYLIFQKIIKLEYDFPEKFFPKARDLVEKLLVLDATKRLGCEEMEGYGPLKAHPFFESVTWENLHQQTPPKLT
In short: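 GST-tagged PDK1 (aa 51-359, 0.75 nM) was coupled to unphosphorylated GST-AKT2 140-467-PIFtide (10 nM) and 100 nM FAM-crosstide at 40 μM ATP, in Tris pH 7.2 buffer, for 30 min at 25 °C. Crosstide phosphorylation was read by IMAP fluorescence polarization (ΔmP) and fitted with a 4-parameter curve.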

[2] = inhibition of P308 Akt in PC-3 cells, MSD
[3] = inhibition of phospo-PDK1 in vitro
[4] = inhibition of P308 Akt in PC-3 cells using MSD

| EC50 [1, 2] [nM] | IC50 (PDK1; [3]) [nM] | EC50 [1, 4] [nM] | IC50 (PDK1; inhibition of PDK1 in vitro) [nM] | EC50 ([1]; PC-3, 2 h, inhibition of P308 Akt in PC-3 cells, MSD) [nM] | Structure (SMILES) |
| --- | --- | --- | --- | --- | --- |
| 1000 to 10000 | > 5000 | – | – | – | CC(C)Oc1cc(CNc2ncccc2C(=O)N(C)C2CC2)cc(-c2c[nH]c3ncc(C(=O)NC4CC4)cc23)c1 [Example 4.1.10, N-cyclopropyl-3-{3-[({3-[cyclopropyl(methyl)carbamoyl]pyridin-2-yl}amino)methyl]-5-(propan-2-yloxy)phenyl}-1H-pyrrolo[2,3-b] pyridine-5-carboxamide] |
| > 10000 | 100 to 1000 | – | – | – | Nc1ncnc2ccc(-c3ccc(CNc4ncccc4C(=O)NCc4cc(F)ccc4F)s3)cc12 [Example 3.6, 2-({[5-(4-aminoquinazolin-6-yl)thiophen-2-yl]methyl}amino)-N-(2,5-difluorobenzyl)pyridine-3-carboxamide] |
| – | – | < 1000 | < 100 | – | NCCNc1nc(-c2ccc(CNc3ncc(C(F)(F)F)cc3C(=O)Nc3ccc(F)cc3)cc2)cnc1N [Example 194, 2-{4-[5-Amino-6-(2-amino-ethylamino)-pyrazin-2-yl]-benzylamino}-N-(4-fluoro-phenyl)-5-trifluoromethyl-nicotinamide] |
| 1000 to 10000 | < 100 | – | – | – | C[C@H](NC(=O)c1cccnc1NCc1ccc(-c2cn(C)c3ncnc(N)c23)cc1)c1ccc(F)c(F)c1 [Example 2.38, 2-[4-(4-Amino-7-methyl-7H-pyrrolo[2,3-d]pyrimidin-5-yl)-benzylamino]-N-[(S)-1-(3,4-difluoro-phenyl)-ethyl]-nicotinamide] |
| – | – | > 10000 | < 100 | – | C[C@H](NC(=O)c1cc(C#N)cnc1NCc1ccc(-c2cnc(N)c(C#N)c2)cc1)c1ccc(F)cc1 [Example 115, (S)-2-(4-(6-amino-5-cyanopyridin-3-yl)benzylamino)-5-cyano-N-(1-(4-fluorophenyl)ethyl) nicotinamide] |
| 1000 to 10000 | < 100 | – | – | – | C[C@H](NC(=O)c1nccnc1NCc1ccc(-c2ccc3ncnc(N)c3c2)s1)c1cccc(F)c1 [Example 3.69, 3-({[5-(4-aminoquinazolin-6-yl)thiophen-2-yl]methyl}amino)-N-[(1S)-1-(3-fluorophenyl)ethyl] pyrazine-2-carboxamide (TFA salt)] |
| < 1000 | < 100 | – | – | – | Nc1ncnc2ccc(-c3ccc(CNc4nccnc4C(=O)NCc4cc(F)c(F)c(F)c4)s3)cc12 [Example 3.71, 3-({[5-(4-aminoquinazolin-6-yl)thiophen-2-yl]methyl}amino)-N-(3,4,5-trifluorobenzyl)pyrazine-2-carboxamide (TFA salt)] |
| 1000 to 10000 | 100 to 1000 | – | – | – | CC[C@H](NC(=O)c1cccnc1NCc1ccc(-c2ccc3ncnc(N)c3c2)s1)c1ccc(F)cc1 [Example 3.43, (S)-2-((5-(4-aminoquinazolin-6-yl)thiophen-2-yl)methylamino)-N-(1-(4-fluorophenyl)propyl) nicotinamide (TFA salt)] |
| 1000 to 10000 | < 100 | – | – | – | Nc1ncnc2ccc(-c3ccc(CNc4ncc(C(=O)N5CCOCC5)cc4C(=O)NCc4ccc(F)c(F)c4)s3)cc12 [Example 7.24.6, 2-({[5-(4-aminoquinazolin-6-yl)thiophen-2-yl]methyl}amino)-N^3-(3,4-difluorobenzyl)-5-(morpholin-4-ylcarbonyl)pyridine-3-carboxamide] |
| 1000 to 10000 | > 5000 | – | – | – | CC(C)Oc1cc(CNc2ncccc2C(=O)N(C)c2ccc(F)cc2)cc(-c2c[nH]c3ncc(C(=O)NC4CC4)cc23)c1 [Example 4.1.9, N-cyclopropyl-3-{3-[({3-[(4-fluorophenyl)(methyl)carbamoyl]pyridin-2-yl}amino)methyl]-5-(propan-2-yloxy)phenyl}-1H-pyrrolo[2,3-b] pyridine-5-carboxamide] |
| – | – | 1000 to 10000 | < 100 | – | C[C@H](NC(=O)c1nccnc1NCc1ccc(-c2cnc3[nH]ncc3c2)cc1)c1ccc(F)cc1 [Example 391, 3-[4-(1H-Pyrazolo[3,4-b]pyridin-5-yl)-benzylamino]-pyrazine-2-carboxylic acid [(S)-1-(4-fluoro-phenyl)-ethyl]-amide] |
| 1000 to 10000 | > 5000 | – | – | – | CC(C)NC(=O)c1cccnc1NCc1cccc(-c2c[nH]c3ncccc23)c1 [Example 1.10, N-(propan-2-yl)-2-{[3-(1H-pyrrolo [2,3-b]pyridin-3-yl)benzyl]amino} pyridine-3-carboxamide] |
| – | – | 1000 to 10000 | < 100 | – | C[C@H](NC(=O)c1cc(C#N)cnc1NCc1ccc(-c2cnc(N)c(C(=O)NCCCN(C)C)n2)cc1)c1ccc(F)cc1 [Example 211] |
| 1000 to 10000 | < 100 | – | – | – | C[C@H](NC(=O)c1cc(S(N)(=O)=O)cnc1NCc1ccc(-c2ccc3ncnc(N)c3c2)s1)c1ccc(F)c(F)c1 [Example 8.7.3, 2-({[5-(4-aminoquinazolin-6-yl)thiophen-2-yl]methyl}amino)-N-[(1S)-1-(3,4-difluorophenyl)ethyl]-5-sulfamoylpyridine-3-carboxamide] |
| – | – | < 1000 | < 100 | – | O=C(Nc1ccc(F)cc1)c1cc(C(F)(F)F)cnc1NCc1ccc(-c2cnc3[nH]ncc3c2)cc1 [Example 156, 2-(4-(1H-pyrazolo[3,4-b]pyridin-5-yl)benzylamino)-N-(4-fluorophenyl)-5-(trifluoromethyl)nicotinamide] |
| 1000 to 10000 | 100 to 1000 | – | – | – | C[C@H](NC(=O)c1cccnc1N[C@@H](COc1ccc2[nH]c(=O)[nH]c2c1)c1ccccc1)c1ccc(F)c(F)c1 [Example 16.3] |
| – | – | 1000 to 10000 | < 100 | – | COCCCc1nc(-c2ccc(CNc3ncc(C#N)cc3C(=O)N[C@@H](C)c3ccc(F)cc3)cc2)cnc1N [Example 92, 2-{4-[5-Amino-6-(3-methoxy-propyl)-pyrazin-2-yl]-benzyl-amino}-5-cyano-N-[(S)-1-(4-fluoro-phenyl)-ethyl]-nicotinamide] |
| – | – | < 1000 | < 100 | – | C[C@H](NC(=O)c1nc(C#N)cnc1NCc1ccc(-c2cnc(N)c(NCC(O)CO)n2)cc1)c1ccc(F)c(F)c1 (stereo partly drawn) [Example 244, 3-{4-[5-Amino-6-(2,3-dihydroxy-propylamino)-pyrazin-2-yl]-benzylamino}-6-cyano-pyrazine-2-carboxylic acid [(S)-1-(3,4-difluoro-phenyl)-ethyl]-amide] |
| – | – | < 1000 | < 100 | – | C[C@H](NC(=O)c1nc(C#N)cnc1NCc1ccc(-c2cnc(N)c(O[C@H]3CCNC3)n2)cc1)c1ccc(F)c(F)c1 [Example 164, 3-{4-[5-Amino-6-((S)-pyrrolidin-3-yloxy)-pyrazin-2-yl]-benzylamino}-6-cyano-pyrazine-2-carboxylic acid [(S)-1-(3,4-difluoro-phenyl)-ethyl]-amide] |
| > 10000 | 1000 to 5000 | – | – | – | O=C(NCc1ccc(C(F)(F)F)cc1)c1cccnc1NCc1ccc(-c2c[nH]c3ncccc23)s1 [Example 1.18] |
| – | 100 to 1000 | – | – | > 10000 | C[C@H](NC(=O)c1cccnc1NCc1ccc(-c2ccc3ncc(-n4ccnc4N)nc3c2)s1)c1ccc(F)c(F)c1 [Example 4.32, (S)-2-(((5-(3-(2-amino-1H-imidazol-1-yl)quinoxalin-6-yl)thiophen-2-yl)methyl)amino)-N-(1-(3,4-difluorophenyl)ethyl) nicotinamide] |
| – | – | < 1000 | < 100 | – | Nc1n[nH]c2ncc(-c3ccc(CNc4ncc(C(F)(F)F)cc4C(=O)NCc4ccc(Cl)cc4)cc3)cc12 [Example 279, 2-(4-(3-amino-1H-pyrazolo [3,4-b]pyridin-5-yl)benzylamino)-N-(4-chlorobenzyl)-5-(trifluoromethyl)nicotinamide] |
| – | – | > 10000 | > 5000 | – | C[C@H](NC(=O)c1cc(C#N)cnc1NCc1ccc(Oc2ccnc(N)c2)cc1)c1ccc(F)cc1 [Example 388] |
| 1000 to 10000 | < 100 | – | – | – | Nc1ncnc2ccc(-c3ccc(CNc4nccnc4C(=O)NCc4ccc(F)c(F)c4)s3)cc12 [Ex. 10.1] |
| < 1000 | < 100 | – | – | – | N#Cc1cnc(N[C@@H](COc2ccc3[nH]c(=O)[nH]c3c2)c2ccccc2)c(C(=O)NCc2ccc(F)c(F)c2)n1 [Example 16.11, (R)-6-cyano-N-(3,4-difluorobenzyl)-3-(2-(2-oxo-2,3-dihydro-1H-benzo[d]imidazol-5-yloxy)-1-phenylethylamino) pyrazine-2-carboxamide] |
| – | – | 1000 to 10000 | < 100 | – | Nc1n[nH]c2ncc(-c3ccc(CNc4ncc(C(F)(F)F)cc4C(=O)NC4CCCC4)cc3)cc12 [Example 302, 2-(4-(3-amino-1H-pyrazolo [3,4-b]pyridin-5-yl)benzylamino)-N-cyclopentyl-5-(trifluoromethyl)nicotinamide] |
| – | – | < 1000 | < 100 | – | CNCCCc1nc(-c2ccc(CNc3ncc(C#N)cc3C(=O)N[C@@H](C)c3ccc(F)cc3)cc2)cnc1N [Example 93, 2-{4-[5-Amino-6-(3-methylamino-propyl)-pyrazin-2-yl]-benzyl-amino}-5-cyano-N-[(S)-1-(4-fluoro-phenyl)-ethyl]-nicotinamide] |
| > 10000 | < 100 | – | – | – | O=C(NCc1ccc(F)c(F)c1)c1cccnc1NCc1ccc(-c2ccc3ncnc(N4CCOCC4)c3c2)s1 [Example 4.11, N-(3,4-difluorobenzyl)-2-(((5-(4-morpholinoquinazolin-6-yl)thiophen-2-yl)methyl)amino)nicotinamide] |
| – | – | > 10000 | < 100 | – | C[C@H](NC(=O)c1cc(C#N)cnc1NCc1ccc(-c2cnc3[nH]nc(CN(C)C)c3c2)cc1)c1ccc(F)cc1 [Example 151, (S)-5-cyano-2-(4-(3-((dimethylamino)methyl)-1H-pyrazolo[3,4-b]pyridin-5-yl)benzyl-amino)-N-(1-(4-fluorophenyl)ethyl) nicotinamide] |
